US6893829B2, “Human leukocyte 12-lipoxygenase and its role in the pathogenesis of disease states” (City of Hope, priority 1992, dated 2005)

Legend:
PAK = PAK activity in CHO-AT1a cells; type: cell-based, Chinese hamster; details: AII 10^−7M, 30 minutes
Experimental: Cell lysis and PAK activity measurement were performed as described in Science, 269:221-223 (1995). Cells were lysed on ice in 50 mM Tris-HCl, 150 mM NaCl, 5 mM EGTA, 50 mM NaF, 10 mM Na pyrophosphate, 1% NP-40, 2.5% glycerol, and 1 mM Na3VO4 (pH 7.5), containing protease inhibitors PMSF, leupeptin and aprotinin. Cell were centrifuged for 10 minutes at 1000 g. For immunoprecipitation, the supernatants were incubated with anti-PAK1 or anti-PAK2 antibody (1:25) (Dept. Immuno. & Cell Biology, Scripps Res. Instit., La Jolla, Calif.) for 2 hours at 4° C. followed by incubation with 60 μl of 1:1 protein A beads for 60 minutes, then 5×1.0 ml lysis buffer washes and 2 washes with kinase buffer (50 mM HEPES, pH 7.5, 10 mM MgCl2 0.2 mM dithiothreitol, 2 μg myelin basic protein and 14 Mμ [r-^32P] ATP) for 20 minutes at 30° C. The reaction was stopped with SDS sample buffer, and results were visualized by SDS-PAGE and autoradiography.
(§1) It has been discovered that the administration of AII results in biphasic activation of MAP kinase (all of the MAP kinase experiments were conducted in CHO-AT1a cells—AII receptor AT1a cDNA transfected Chinese hamster ovary cells).

[1] = tested on: VEGF in vascular smooth muscle cells (VSMC); test: VEGF protein, mRNA and secretion in VSMC (Western, Northern, EIA); type: cell-based, Porcine and human
Experimental: In addition to the work reflected in FIGS. 8-10, it has now been discovered that AII, 12-HETE and hyperglycemia (HG) increase VEGF production in vascular smooth muscle cells (VSMC). Porcine and human VSMC were cultured for at least two passages under normal glucose (NG, 5.5 mM) or under HG conditions. VEGF protein expression was determined by Western blotting and VEGF mRNA by Northern blots. HG alone increased the level of VEGF mRNA (2.8-fold) and protein (3.2-fold). […] In addition, HG increased the secretion of VEGF into the medium as measured by a specific EIA (56.2±4 ng/ml NG vs 73±5 HG, p<0.02).

ERK = ERK activity in CHO-AT1a cells; type: cell-based, Chinese hamster; details: AII 10^−7M
Experimental: ERK activity was evaluated by the substrate-SDS-polyacrylamide gel method described in Anal. Biochem., 183:139-143 (1989). Confluent cells in […] were made quiescent in serum-free medium and then treated with agonists for various time periods. The cells were then lysed in lysis buffer (1% NP40, 1% sodium deoxycholate, 0.1% SDS, 100 mM NaCl, 50 mM Tris, 10 mM EDTA, 1 mM EGTA, aprotinin, […], 0.1 mM PMSF and 1 mM sodium orthovanadate, pH 7.4). Lysates were centrifuged to pellet nuclei and the cell extracts ([…]) were subjected to electrophoresis on SDS-polyacrylamide gels (10%) containing myelin basic protein (0.5 mg/ml) as an ERK substrate. The SDS was then washed, followed by denaturation, renaturation and protein phosphorylation on the gel with [^32P] ATP.
as §1

JNK = JNK activity in CHO-AT1a cells; type: cell-based, Chinese hamster; details: AII 10^−7M
Experimental: The plasmid pGEX-cJun 1/79 (Dept. Pharmacol. UCSD, La Jolla) is a GST-cJun (1-79) expression vector encoding amino acids (1-79) of cJun. The GST fusion protein expression vector was transformed into E. Coli. Protein was induced with 0.1 mM IPTG and purified by affinity binding to glutathione-agarose beads. Unstimulated or stimulated cells were lysed into WCEB (25 mM HEPES, pH 7.7, 03.M Nacl, 15 mM MgCl2, 02.mM EDTA and 0.1% triton X-100). About 50 μg protein extract was incubated with GST-cJun+GSH agarose overnight at 4° C. Phosphorylation was carried out at 30° C. for 20 minutes in the presence of 20 mM HEPES, pH 7.5, 20 mM b-glycerophosphate, 10 mM p-nitrophenolphosphate, 10 mM MgCl2, 10 mM DDT, 50 μg Na3VO4, 20 μM ATP (cold) and about 0.5 μl of new gamma ^32P-ATP. After boiling with electrophoresis sample buffer, the supernatants were analyzed on 12% SDS-PAGE. JNK activity was also measured by immunoprecipitation method using an anti-JNK antibody (Parmingen Co., San Diego) and then activities were measured using 2 μg of GST-cJun (1-79) as substrate as described in Cell, 81:1147-1157 (1995).
as §1

[2] = AII 10^−7M, 4 hours, cells cultured in HG

Substance: Angiotensin II (DRVYIHPF; Angiotensin-2; UniProt P01019 25-32, looked up) [AII, peptide hormone, added to cells as stimulus]
- stimulation of PAK, major peak (PAK): 5 fold
- increase in VEGF secretion (EIA) [1]: 1.24 fold
- VEGF mRNA expression increase [1, 2]: 1.4 fold
- VEGF protein expression increase [1, 2]: 2.2 fold
- stimulation of ERK activity, later peak (ERK; 3-4.5 hours): 1.5-3 fold
- stimulation of ERK activity, first peak (ERK; 5 minutes): 2-6 fold
- stimulation of JNK activity (JNK): peaks at 30 minutes and remains sustained for 1 hour
